Reference: patent US20250115571A1, “OXOPIPERAZINE DERIVATIVES” (Inthera Bioscience AG, priority 2017, published 2025)

Legend:
[1] = system: HPV-positive head-and-neck squamous cell carcinoma model #HN10309; experiment: Patient-derived xenograft mouse model for head-and-neck squamous cell carcinoma (HN10309); assay type: in vivo; conditions: p.o. BID, 30 mg/kg, female NMRI nu/nu mice
Method: Female NMRI nu/nu mice were injected with cells derived from a human head-and-neck cancer (model #HN10309, an HPV-positive head-and-neck squamous cell carcinoma, EPO-GmbH, Berlin, Germany). The cells were inoculated subcutaneously into the left flank of 24 mice. Thirty-three days later tumors reached a mean volume of approximately 116 mm^3, and mice were randomly assigned to three treatment groups of each eight mice (TABLE 21). Body weights were measured twice weekly. Tumor burden was assessed by caliper measurement twice weekly. Dosing breaks were applied when tolerability issues arose (body weight loss>[…]). The study was terminated four weeks post first dosing. The experiment was performed in the EPO animal testing facility (Experimental Pharmacology and Oncology GmbH, 13125 Berlin-Buch, Germany).

[2] = system: HPV-positive head-and-neck squamous cell carcinoma model #HN11303; experiment: Patient-derived xenograft mouse model for head-and-neck squamous cell carcinoma (HN11303); assay type: in vivo; conditions: for mice tumor-free at the end of the observation period: HN11303 PDX, variable dosages (TABLE 23), all sixteen mice of the two groups; for mean TV: subcutaneous HPV-positive HNSCC model, female NMRI nu/nu mice
Method: Female NMRI nu/nu mice were injected with cells derived from a human head-and-neck cancer (model #HN11303, an HPV-positive head-and-neck squamous cell carcinoma, EPO-GmbH, Berlin, Germany). The cells were inoculated subcutaneously into the left flank of 40 mice. Thirteen days later tumors reached a mean volume of approximately 107 mm^3, and mice were randomly assigned to five treatment groups of each eight mice (TABLE 23). Body weights were measured twice weekly. Tumor burden was assessed by caliper measurement twice weekly. Dosing breaks were applied when tolerability issues arose (body weight loss>10). The study was terminated five weeks post first dosing. The experiment was performed in the EPO animal testing facility (Experimental Pharmacology and Oncology GmbH, 13125 Berlin-Buch, Germany).

[3] = system: SiHa human HPV16-positive cervical cancer cells; experiment: Cell-derived xenograft mouse model for cervical cancer (SiHa CDX); assay type: in vivo; conditions: p.o.; for Tumor Size day 37: SiHa CDX, female BALB/c nude mice, Mean ± SEM; for T/C: day 37, tumor-to-control ratio (volume/volume)
Method: (§1) Female BALB/c nude mice (7-9 weeks of age) were injected with SiHa human HPV16-positive (Human Papillomavirus type 16) cervical cancer cells. The cells were inoculated subcutaneously into the left flank of 48 mice. When tumors reached a mean volume of approximately 111 mm^3, mice were randomly assigned to eight treatment groups of each six mice (TABLE 18). Body weights were measured three times weekly prior to the initiation of dosing and daily thereafter. Tumor burden was assessed by caliper measurement twice weekly. Dosing breaks were applied when tolerability issues arose (body weight loss>10%). The study was terminated four weeks post first dosing. The experiment was performed in the Crown Bioscience Ltd. (Beijing) testing facility (Ground Floor, Light Muller Building, Changping Sector of Zhongguancun Scientific Park, No. 21 Huoju Road, Changping District, Beijing, CHIN).

[4] = system: patient-derived castration-resistant prostate tumor cells (model #PR6511); experiment: Castration resistant prostate cancer patient-derived xenograft (CRPC PDX); assay type: in vivo, mouse
Method: NSG NOD.Cg-PrkdcscidIj2rgtm1Wjl/SzJ mice (6-8 weeks of age) were injected with patient-derived castration-resistant prostate tumor cells (model #PR6511, Crown Bioscience UK Ltd Hillcrest, Osgathorpe Leicestershire, UK). The cells were inoculated subcutaneously into the left flank of 40 male NSG mice. When tumors reached a mean volume of approximately 100 mm^3 (i.e. 100 mm^3+/−54 mm^3, FIG. 3), mice were randomly assigned to five treatment groups of each eight mice (TABLE 9). Body weights were measured three times weekly prior to the initiation of dosing and daily thereafter. Tumor burden was assessed by caliper measurement three times weekly. Dosing breaks were applied when tolerability issues arose (body weight loss>10). Upon completion of the scheduled dosing phase at day 57, tumor outgrowth was monitored for groups 3, 4 and […] up to study day 77. Groups 1 and 2 were terminated on study day 57. Results of the experiment are shown in TABLES 10 and 11; and FIGS. 3 and 4. The experiment was performed in the Crown Bioscience Ltd. testing facility (Crown Bioscience UK Ltd Hillcrest, Dodgeford Lane, Osgathorpe Leicestershire LE12 9TE, UK).

[5] = system: MKN45 human gastric adenocarcinoma cells; experiment: Cell-derived xenograft mouse model for gastric cancer (MKN45 CDX); assay type: in vivo; conditions: 12 mg/kg, QW, i.v.
Method: as §1, with “(8-9” for “(7-9”, “MKN45” for “SiHa”, “gastric adenocarcinoma” for “HPV16-positive (Human Papillomavirus type 16) cervical cancer”, “103” for “111”, “16).” for “18).”, “CHN).” for “CHIN).”

[6] = 1 mg/kg, BID, listed as Compound 248
[7] = p.o. QD, 30 mg/kg, groups of eight mice

| SMILES | mean TV ([1]; Day 33) | mean TV ([1]; Day 35) | mean TV ([1]; Day 38) | mean TV ([1]; Day 41) | mean TV ([1]; Day 45) | mean TV ([1]; Day 49) | mean TV ([1]; Day 53) | mean TV ([1]; Day 56) | mice tumor-free at the end of the observation period [2] | mean TV ([2]; day 13) | mean TV ([2]; day 15) | mean TV ([2]; day 18) | mean TV ([2]; day 21) | mean TV ([2]; day 25) | mean TV ([2]; day 29) | mean TV ([2]; day 33) | mean TV ([2]; day 36) | Tumor Size day 37 ([3]; 3 mg/kg, BID) | T/C ([3]; 3 mg/kg, BID) | further results |
| --- | --- | --- | --- | --- | --- | --- | --- | --- | --- | --- | --- | --- | --- | --- | --- | --- | --- | --- | --- | --- |
| CC(C)C[C@@H]1NCCN([C@@H](CC(C)C)C(=O)N2CCC3(C[C@@H]2C)OCC(CN2CCCC2)CO3)C1=O (stereo partly drawn) [Compound 248, (S)-1-[(S)-1-({(S)-8-Methyl-3-[(1-pyrrolidinyl)methyl]-1,5-dioxa-9-aza-9-spiro[5.5]un-decyl}carbonyl)-3-methylbutyl]-3-isobutyl-2-piperazinone] | 0.1159 cm^3 | 0.1248 cm^3 | 0.1389 cm^3 | 0.1093 cm^3 | 0.1794 cm^3 | 0.2398 cm^3 | 0.2964 cm^3 | 0.2569 cm^3 | tumor-free | 0.1064 cm^3 | 0.0958 cm^3 | 0.0916 cm^3 | 0.0511 cm^3 | 0.0499 cm^3 | 0.0288 cm^3 | 0.0068 cm^3 | 0.0041 cm^3 | 178 ± 27 mm^3 | 19% | Tumor Size day 37 [3, 6]: 586 ± 82 mm^3; T/C [3, 6]: 62.6%; Tumor Size day 37 ([3]; 6 mg/kg, QD): 238 ± 37 mm^3; T/C ([3]; 6 mg/kg, QD): 25.4% |
| CC(C)C[C@H]1C(=O)N([C@@H](CC(C)C)C(=O)N2CCC3(C[C@@H]2C)OCC(CN2CCCC2)CO3)CCN1C (stereo partly drawn) [Compound 273, (S)-1-[(S)-1-({(S)-8-Methyl-3-[(1-pyrrolidinyl)methyl]-1,5-dioxa-9-aza-9-spiro[5.5]un-decyl}carbonyl)-3-methylbutyl]-3-isobutyl-4-methyl-2-piperazinone] |  |  |  |  |  |  |  |  | tumor-free | 0.1063 cm^3 | 0.1073 cm^3 | 0.0948 cm^3 | 0.0875 cm^3 | 0.0451 cm^3 | 0.0194 cm^3 | 0.0056 cm^3 | 0.0031 cm^3 | 942.0 ± 114.9 mm^3 | 79.3% |  |
| CC(C)C[C@@H]1NCCN([C@@H](CC(C)C)C(=O)N2CCC(CCN3CCC4(CC3)CC4)CC2)C1=O [Compound 282, (S)-1-[(S)-1-[(4-{2-(6-Aza-6-spiro[2.5]octyl)eth-yl}-1-piperidyl)carbonyl]-3-methylbutyl]-3-isobutyl-2-piperazinone] | 0.1161 cm^3 | 0.1308 cm^3 | 0.1751 cm^3 | 0.2086 cm^3 | 0.3560 cm^3 | 0.4920 cm^3 | 0.6364 cm^3 | 0.6558 cm^3 |  | 0.1073 cm^3 | 0.1061 cm^3 | 0.1040 cm^3 | 0.0971 cm^3 | 0.1111 cm^3 | 0.1030 cm^3 | 0.1273 cm^3 | 0.1185 cm^3 |  |  |  |
| CC(C)C[C@@H]1NCCN([C@@H](CC(C)C)C(=O)N2CCC3(C[C@@H]2C)OCC(CN2CCC2)CO3)C1=O (stereo partly drawn) [Compound 318, (S)-1-[(S)-1-({(S)-3-[(1-Azetidinyl)methyl]-8-methyl-1,5-dioxa-9-aza-9-spiro[5.5]undecyl}car-bonyl)-3-methylbutyl]-3-isobutyl-2-piperazinone] |  |  |  |  |  |  |  |  |  |  |  |  |  |  |  |  |  | 351 ± 68 mm^3 | 37.5% |  |
| CNC(=O)c1ccc(N2C(=S)N(c3ccc(C#N)c(C(F)(F)F)c3)C(=O)C2(C)C)cc1F [Enzalutamide, enzalutamide, reference compound] |  |  |  |  |  |  |  |  |  |  |  |  |  |  |  |  |  |  |  | TWO-WAY ANOVA p (tumor size at the end of the study) vs. Vehicle ([4]; 30 mg/kg p.o. QD, n.s. = not significant): n.s.; CR (complete regression) = number of mice [4, 7]: 0; PR (partial regression) = number of mice [4, 7]: 0; TFS (Tumor Free Survival) = number of complete regressions recorded up to Group Day End [4, 7]: 0 |
| CC(=O)O[C@H]1C(=O)[C@@]2(C)[C@H]([C@H](OC(=O)c3ccccc3)[C@]3(O)C[C@H](OC(=O)[C@H](O)[C@@H](NC(=O)c4ccccc4)c4ccccc4)C(C)=C1C3(C)C)[C@]1(OC(C)=O)CO[C@@H]1C[C@@H]2O [Paclitaxel, paclitaxel, reference compound] |  |  |  |  |  |  |  |  |  |  |  |  |  |  |  |  |  |  |  | Tumor Size day 29 ([5]; MKN45 CDX, female BALB/c nude mice, Mean ± SEM): 554.9 ± 52.8 mm^3; T/C ([5]; day 29, tumor-to-control ratio (volume/volume)): 46.6% |
